Data set [1] deals with E2-stimulated growth of immature mouse uterus. The experiment in a line: Immature mouse uterine growth assay (anti-estrotrophic activity). The class given is in vivo. The following applies: for effect of 4 M urea treatment on biological activity of stored peptide: stored (aged) peptide, brief treatment with 4 M urea; for dose of maximal (optimal) inhibition of estrogen-stimulated growth of mouse uterus: i.p., dose-response; for inhibition of the uterotrophic effect of estradiol (normalized uterine weight, E2+ Pep vs E2): Pep i.p. one hour before E2, uteri weighed 22 hours later; for biological activity of gel-filtration fraction: aged peptide, 1 μg i.p. The source says: (§1) Twenty-two hours later, uteri were dissected and weighed. […] (FIG. 1a) Peptide dose-response.
(§2) Immature Mouse Uterine Growth Assay.

The nature of data set [2]: Shelf-life (storage) studies of lyophilized peptide, read out in the immature mouse uterine growth assay. The class given is physicochemical. The following applies: for shelf-life: storage in the lyophilized state, tested in immature mouse uterine growth assay; for time in storage after which anti-estrotrophic activity was lost (diminished to insignificant levels): lyophilized, −20° C.
Excerpt: as §1, §2

Data set [3] concerns the target T1, estrogen receptor (Oryctolagus cuniculus, UniProt G1SML6).
T1 sequence (G1SML6 1-598): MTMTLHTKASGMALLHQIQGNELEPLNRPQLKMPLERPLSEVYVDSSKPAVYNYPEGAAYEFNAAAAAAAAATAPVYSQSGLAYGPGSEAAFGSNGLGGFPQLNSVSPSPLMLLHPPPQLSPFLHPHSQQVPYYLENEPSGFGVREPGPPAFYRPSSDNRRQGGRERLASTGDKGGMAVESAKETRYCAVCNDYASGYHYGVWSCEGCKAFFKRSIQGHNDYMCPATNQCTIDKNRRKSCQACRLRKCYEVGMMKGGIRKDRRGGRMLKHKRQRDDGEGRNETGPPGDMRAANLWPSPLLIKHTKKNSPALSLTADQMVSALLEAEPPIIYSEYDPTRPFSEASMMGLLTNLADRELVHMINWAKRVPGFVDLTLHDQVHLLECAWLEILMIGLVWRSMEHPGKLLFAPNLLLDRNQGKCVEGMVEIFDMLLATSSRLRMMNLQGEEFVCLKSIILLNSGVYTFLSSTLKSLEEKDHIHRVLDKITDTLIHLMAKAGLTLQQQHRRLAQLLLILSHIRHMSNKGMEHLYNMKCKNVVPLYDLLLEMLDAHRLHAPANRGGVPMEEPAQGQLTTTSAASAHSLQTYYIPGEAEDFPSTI
The experiment in a line: Assessment of estrogen receptor antagonism ([3H]E2 binding, uterine cytosol). The conditions noted are these: for interference with E2 binding to its receptor: peptide concentration range 10^−10 M to 10^−5 M. Also noted: species or system rabbit. On the procedure:
Assessment of Estrogen Receptor Antagonism. Commercially obtained rabbit uteri (Pel-Freez Biological, Rogers, Ark.) were used as a source of estrogen receptor. […] Total count tubes received 20 μl of [^3H] estradiol and 180 μl of assay buffer.

The subject of data set [4] is MCF-7 human breast cancer xenografts. The experiment in a line: Human breast cancer xenograft assay, MCF-7. The class given is in vivo. The following applies: E2 implant; peptide 1 μg i.p. twice a day; tamoxifen 50 μg i.p. once a day; 30-day observation; vs E2 alone. On the procedure: (§3) Tumors were implanted as described in Materials and Methods. […] There was a minimum of 5 mice per group. (FIG. 9a) MCF-7 tumors.
Human Breast Cancer Xenograft Assay. A bioassay for anti-breast cancer activity was performed according to Bennett et al. (23;24). Confluent MCF-7 human breast cancer cells were trypsinized into suspension and pelleted by centrifugation at 200× g. The pellet was then solidified into a fibrin clot by exposing it to 10 μl of fibrinogen (50 mg/ml) and 10 μl of thrombin (50 units/ml). The solid mass of MCF-7 cells was then cut into pieces 1.5 mm in diameter. A tumor segment of ˜1.5 mm in diameter was implanted under the kidney capsule of an immunodeficient ICR-SCID male mouse (Taconic Farms) that weighed about 25 g. Estrogen supplementation was accomplished by s.c. implantation of a silastic tubing capsule containing solid E2 inserted on the day of tumor implantation. Peptide was injected i.p. every twelve hours at a dose of 1 μg per mouse. Tumor growth was monitored during survival laparotomy at 10-day intervals by measurement of the diameters of the short (d) and long axes (D) of each tumor, using a dissecting microscope equipped with an ocular micrometer. Tumor volumes were calculated using the formula (π/6)(d)^2D, assuming the tumor shape to be an ellipsoid of revolution around its long axis (D). There were five to seven replicate mice included in each treatment group. Mean tumor volume±standard error in each group was calculated for display of growth curves. Significance of differences between groups were tested using the one-sided Wilcoxon Sum of Ranks Test.

Data set [5] relates to MCF-7/Tam human breast cancer xenografts. The experiment in a line: Human breast cancer xenograft assay, tamoxifen-resistant MCF-7 subline. The class given is in vivo. The conditions noted are these: E2 implant; peptide 1 μg i.p. twice a day; tamoxifen 50 μg i.p. once a day; day 30; vs E2 alone. The method, then:
as §3
Cell Lines. T47D and MDA-MB-231 human breast cancer cell lines were purchased from the American Type Culture Collection (Manassas, Va.). Growth medium for T47D cells consisted of RPMI 1640 (Life Technologies, Germantown, Md.) supplemented with 10% fetal bovine serum (Life Technologies) and 8 μg/ml bovine insulin (Sigma, St. Louis, Mo.). Growth medium for MDA-MB-231 consisted of Dulbecco's Modified Eagle Medium (Life Technologies) supplemented with L-glutamine (2 mM), non-essential amino acids (1%, Life Technologies) and bovine insulin (1 μg/ml). The MCF-7 cell line was obtained from Dr. Alberto C. Baldi, Institute of Experimental Biology and Medicine, Buenos Aires, Argentina, and was maintained as previously describedby Gierthy et al. (1991).
Human Breast Cancer Xenograft Assay. […] Tumor growth was monitored during survival laparotomy at 10-day intervals by measurement of the diameters of the short (d) and long axes (D) of each tumor, using a dissecting microscope equipped with an ocular micrometer. Tumor volumes were calculated using the formula (π/6)(d)^2D, assuming the tumor shape to be an ellipsoid of revolution around its long axis (D). […] Mean tumor volume±standard error in each group was calculated for display of growth curves. […]
In general terms: A xenograft is tissue or cells of one species grown in another, often human tumour cells in immunodeficient mice.

For data set [6], the system named is T47D human breast cancer xenografts. The experiment in a line: Human breast cancer xenograft assay, T47D. The class given is in vivo. The following applies: E2 supplementation; 30-day observation; vs E2 alone.
Data set [7] has as its system estrogen-receptor-negative MDA-MB-231 human breast cancer xenografts. The experiment in a line: Human breast cancer xenograft assay, MDA-MB-231. The class given is in vivo. The conditions noted are these: ER− tumor, 30 day observation.
The conditions of data set [8]: tamoxifen users; cited from earlier work.
Data set [9] has as its system growth of the immature mouse uterus. The experiment in a line: Uterotrophic effect of test agent alone on immature mouse uterus. The class given is in vivo. The conditions noted are these: even at a dose of 10 μg/mouse.
Experimental: Various doses indicated on the abscissa of each test agent were injected i.p. Twenty-two hours later uteri were harvested and weighed.
Immature Mouse Uterine Growth Assay. A bioassay for anti-estrotrophic activity was performed using an immature mouse uterine growth assay (22). Swiss/Webster female mice, 6-8 g in body weight (13-15 days old), were obtained from Taconic Farms (Germantown, N.Y.). […] In a typical experiment, each group received two sequential intraperitoneal injections spaced one hour apart. Test material or vehicle control for that material was contained in the first injectant. Estradiol (E2) or vehicle control for E2 was contained in the second injectant. Twenty-two hours after the second injection, uteri were dissected, trimmed free of mesenteries, and immediately weighed. The uterine weights were normalized to mouse body weights (mg uterine weight/g of body weight) to compensate for differences in body weight among litters of the same age. Experiments employed a minimum of five mice per group, and the mean normalized uterine weight±standard error for each group was calculated. Percent growth inhibition in a test group was calculated from the normalized uterine wet weights as described below.
Data set [10] deals with tamoxifen-stimulated growth of immature mouse uterus. The experiment in a line: Inhibition of tamoxifen-stimulated growth of immature mouse uterus. The class given is in vivo. The following applies: Pep i.p. one hour before Tam, uteri weighed 22 hours later.
Excerpt: as §2

The nature of data set [11]: Preliminary pharmacokinetic studies in mice. The class given is in vivo, mouse.
Data set [12] in a line: Toxicity to mice in the uterine growth assay. The class given is in vivo. The conditions noted are these: even at an effective dose of 1 mg/mouse.
Excerpt: as §2

“Also recorded” adds a separate entry of the source. Square brackets hold non-standard residues; d marks the D form. Ends that are not written are not given here. Peptide text beside a SMILES is read from it. Hyp = O=C(O)[C@@H]1C[C@@H](O)CN1

For “cyclo-(EMTPVNPGQ) (head-to-tail cyclization) [head-to-tail cyclized nonapeptide]”, in data set [1] (at the optimal dose of the linear peptides (1 μg)), the “inhibition of estrogen-stimulated growth of immature mouse uterus” value is given as “very active”. For the same compound, the “effect of 4 M urea treatment on biological activity of stored peptide” value in [1] was “restored the optimal biological activity”. In addition, in data set [2], the shelf-life result is given as “somewhat extended but still rather limited shelf-life”. Moreover, in [2] (storage of six months), the “biological activity after prolonged storage” value is given as “significant, albeit not optimal, biological activity”.
`O=C(c1ccc(OCCN2CCCCC2)cc1)c1c(-c2ccc(O)cc2)sc2cc(O)ccc12` [raloxifene, reference compound]: in data set [3] (concentration of 100 nM), the “inhibition of estradiol binding to its receptor” value was “completely inhibited”.
For “EMTPVNPG [SEQ ID NO: 6: EMTPVNPG, native AFP-derived octapeptide, amino acids 472-479 of alpha-fetoprotein, reference compound]”, the “dose of maximal (optimal) inhibition of estrogen-stimulated growth of mouse uterus” value in data set [1] was around 1 μg/mouse. In addition, the “effect of 4 M urea treatment on biological activity of stored peptide” value in data set [1] is “regenerated”. Also, the “effect of excipient on shelf-life of the peptide” value in data set [2] (excipient: dodecylmaltoside) is on record as “significantly prolonged shelf-life”; in data set [2] (excipient: mannitol), “significantly prolonged shelf-life”; in [2] (excipient: sucrose), “did not do so”. Also, the “time in storage after which anti-estrotrophic activity was lost (diminished to insignificant levels)” value in [2] is “four to five”.
As to `CC/C(=C(\c1ccccc1)c1ccc(OCCN(C)C)cc1)c1ccccc1` [tamoxifen, reference compound], in data set [4], the “effect on estrogen-dependent growth (tumor volume) of MCF-7 xenografts” value (shortened to “effect on estrogen-dependent growth”) was “no increase in tumor volume”. In [5], the “effect on growth (tumor volume) of tamoxifen-resistant MCF-7 subline xenografts” value is on record as “only minimally effective”. Further, the “effect on growth (tumor volume) of T47D xenografts” value in [6] is “prevented growth”. In addition, in [7], the “effect on growth (tumor volume) of MDA-MB-231 xenografts” value is “did not affect the growth”. The “users in whom uterine cancer is caused (side effect)” value in data set [8] was 0.2%.
Regarding “EMTOVNOG (EMT[Hyp]VN[Hyp]G) [SEQ ID NO: 4: EMTOVNOG, linear octapeptide where O is hydroxyproline (4-hydroxyproline for both prolines)]”, the figures for the “inhibition of the uterotrophic effect of estradiol (normalized uterine weight, E2+ Pep vs E2)” value in data set [1] and in data set [1] (listed as AFP-derived peptide) were “inhibited” and “significantly different”, respectively. Further, the “dose of maximal (optimal) inhibition of estrogen-stimulated growth of mouse uterus” value in [1] worked out at 1 μg/mouse. In addition, the “effect on estrogen-dependent growth” value in data set [4] was “inhibited; also recorded: no significant increase in tumor volume”. In addition, the “effect on growth (tumor volume) of tamoxifen-resistant MCF-7 subline xenografts” value in [5] was “completely stopped the growth”. Besides, in data set [6], the “effect on growth (tumor volume) of T47D xenografts” value is on record as “completely prevented tumor growth”. The “effect on growth (tumor volume) of MDA-MB-231 xenografts” value is listed as “no effect” in data set [7] and “no differences in tumor volumes” in [7] (listed as AFP-derived peptide). Besides, the “interference with E2 binding to its receptor” value is given as “no interference” in data set [3] and “did not interfere” in data set [3] (listed as linear hydroxyproline-containing octapeptide). Also, the uterotrophic effect entry in data set [9] is “no uterotrophic effect whatsoever”. The “inhibition of tamoxifen's uterotrophic effect (normalized uterine weight, Tam+ Pep vs Tam)” value is listed as “significantly inhibited” in [10], “significantly different” in data set [10] (listed as AFP-derived peptide) and “inhibited” in [10] (listed as Peptide). Besides, the shelf-life result in data set [2] is recorded as “indefinite shelf-life”. Further, the biological half-life entry in data set [11] is listed as “two to three”.
With “QMTPVNPG [SEQ ID NO: 2: QMTPVNPG, linear octapeptide analog of the AFP octapeptide, N-terminal glutamic acid substituted with glutamine]”, the “biological activity of gel-filtration fraction” value in data set [1] (higher molecular weight fraction) is “biologically inactive”. In addition, the “biological activity of gel-filtration fraction” value in data set [1] (lower molecular weight fraction) is recorded as “active”. Further, in data set [1], the “dose of maximal (optimal) inhibition of estrogen-stimulated growth of mouse uterus” value is given as 1 μg/mouse and the “effect of 4 M urea treatment on biological activity of stored peptide” value is on record as “restored its biological activity”. Besides, the “biological activity of aged peptide” value in data set [1] (stored in the lyophilized state at −20° C. for over one year) is “completely biologically inactive”. Further, in [2], the “time in storage after which anti-estrotrophic activity was lost (diminished to insignificant levels)” value was “five and four to five”; the shelf-life entry was “stored somewhat better than the native octapeptide”.
For `CSCC[C@@H]1NC(=O)[C@H](CCC(=O)O)NC(=O)[C@H](CCC(N)=O)NC(=O)CNC(=O)[C@@H]2C[C@@H](O)CN2C(=O)[C@H](CC(N)=O)NC(=O)[C@H](C(C)C)NC(=O)[C@@H]2C[C@@H](O)CN2C(=O)[C@H]([C@@H](C)O)NC1=O` [cyclo-(SEQ ID NO: 5: EMTOVNOGQ), cyclo-(EMTOVNOGQ)] (cyclo(EMT[Hyp]VN[Hyp]GQ)), the anti-estrotrophic activity entry in data set [1] (doses higher than 10 μg/mouse) is recorded as “retained significant anti-estrotrophic activity”. In addition, in [4], the “effect on estrogen-dependent growth” value is reported as “significantly inhibited”. In addition, the shelf-life result in data set [2] is recorded as “indefinite shelf-life”. For the same compound, the “toxicity to the mice” value in data set [12] was “no evidence of toxicity”.
As for “EMTPVNPGQ [SEQ ID NO: 7: EMTPVNPGQ, linear nonapeptide, glutamine residue added to the C-terminus of the native octapeptide]”, the “dose of maximal (optimal) inhibition of estrogen-stimulated growth of mouse uterus” value in [1] came to 1 μg/mouse.

These data come from US6818741B2, “Alpha-fetoprotein peptides and uses therof” (CLF Medical Technology Acceleration Program, Inc., priority 2000, dated 2004).
